Like-named read-outs stand apart in the source and are kept apart here. Marks after values point to notes of the source that are not given here. One block for each compound: values may come before it.
Experiments:
AR = AR antagonistic activity: AR / PSA ARE1 luciferase reporter gene assay in transfected LNCaP cells stimulated with 1 nM DHT; assay type: cell-based; conditions: treatment concentration: 3.3 µM, 24 h, normalised to 0.1% DMSO and 30 µM enzalutamide
Description: LNCaP cells were plated in a 6-well plate (Corning, 3516) at 8 × 10^5 cells/well.
AR and PSA ARE1 reporter gene plasmids (Bio (Anhui) Co., Ltd.) and transfection reagents Lipo3000 and P3000 (Lipofectamine™ 3000) (a total of 2.5 µg of plasmids, i.e., 1.25 µg of each plasmid, were added to each well) were left to stand and incubated for 10 min, and then 250 µL of the above transfection reagents were added dropwise to each well containing cells and co-incubated with the cells for 24 h.
The cells were washed with PBS, and the medium was replaced with a phenol red-free RPMI-1640 medium containing 5% carbon adsorption serum (or 10% fetal bovine serum and 1% penicillin and streptomycin). The cells were re-plated onto a 96-well plate (Corning, 3603) according to the number of cells plated (2 × 10^4 cells/well).
After cell plating, the test compound (or DMSO or positive control) was added. After at least 30 min of incubation, DHT (dihydrotestosterone) was added to the culture system at a final concentration of 1 nM. The culture system was then incubated in a carbon dioxide incubator.
Test compound: 10 mM stock solution, with a final concentration of 3.3 µM or 6.7 µM. Negative control: 0.1% DMSO. Positive control: 30 µM enzalutamide.
After the test compound (or DMSO or positive control) and DHT were co-incubated for 24 h, the luciferase signal was detected using the Vazyme Bright-Lite substrate. The medium was added at 70 µL/well, and the plate was shaken for 2 min, followed by reading of the luciferase signal.
Assay robustness was confirmed using the DMSO and low concentration control data: Ave_H = Ave(DMSO) [formula] Ave_L = Ave (30μMenzalutamide) [formula] Inhibition rate (%) = (Ave_H−Sample)/(Ave_H−Ave_L) × 100% [formula] Ave_H: the measurement of the negative control (0.1% DMSO); Ave_L: the measurement of the positive control (30 µM enzalutamide); Sample: the measurement of the test compound; The corresponding activity test results for the test compounds were specified in Table 1. Table 1. Corresponding activity test results for compounds disclosed herein

[1] = Metabolic stability assay in liver microsomes; assay type: in vitro ADME; conditions: pH 7.4, human liver microsome 0.5 mg/mL, 1 mM NADPH, compound 1 µM, 37 °C; for microsomal CLint at 1 µM: read-out: In vitro Clint; for half-life at 1 µM: read-out: In vitro T1/2
Description: The metabolic stability of compounds disclosed herein in liver microsomes was determined using the following method.
• 1. Liver microsome source: Human liver microsome (Corning, 452117) • 2. Na2HPO4 (Tianjin Guangfu Fine Chemical Research Institute, 20180130) • 3. KH2PO4 (Tianjin Guangfu Fine Chemical Research Institute, 20180920) • 4. MgCl2 (Tianjin Guangfu Fine Chemical Research Institute, 20191216) • 5. NADPH (Solarbio, 1216C022) • 6. Positive control compound verapamil (Sigma, MKBV4993V) • 7. AB Sciex Triple Quad 4000 liquid chromatography-mass spectrometry system
1. Preparation of 100 mM phosphate-buffered saline (PBS): 7.098 g Na2HPO4 was dissolved in 500 mL of purified water by sonication to give solution A. 3.400 g of KH2PO4 was dissolved in 250 mL of purified water by sonication to give solution B. Solution A was placed on a stirrer, and solution B was added slowly until the pH reached 7.4, so as to give a 100 mM PBS buffer. 2. Preparation of reaction system The reaction system was prepared according to the table below.
3. The reaction system was pre-incubated in a 37 °C water bath for 10 min. 40 µL of 10 mM NADPH solution (NADPH was dissolved in 100 mM phosphate-buffered saline) was added to the reaction system, with the final concentration of NADPH being 1 mM. A negative control was prepared by replacing the NADPH solution with 40 µL of phosphate-buffered saline. The negative control was used to exclude the effect of the chemical stability of the compound itself. 4. The reaction was initiated by adding 4 µL of 100 µM compound disclosed herein or positive control compound verapamil to the reaction system at a final concentration of 1 µM. 5. After 0.5 min, 15 min, 30 min, 45 min, and 60 min of mixing well by using a vortex oscillator, 50 µ L of the incubated sample was taken out, and glacial acetonitrile containing an internal standard of 4 folds was added to terminate the reaction. The sample was centrifuged at 3,220 g for 45 min. 90 µL of the supernatant was transferred to a feeding plate after the centrifugation was completed, and 90 µL ultrapure water was added. The mixture was well mixed for LC-MS/MS analysis.
All data were calculated by using Microsoft Excel software. The peak areas were determined by using an extracted ion chromatogram. The in vitro half-life (T1/2) of the test compound was determined by linear fitting of the natural logarithm of the elimination proportion of the test compound over time. In vitro half-life (T1/2) was calculated by the slope k: in vitro T1/2 = 0.693/k [formula]
The in vitro intrinsic clearance (in vitro CLint, unit: µL/min/mg protein) was calculated using the following formula: in vitro CLint = k × volume of incubation solution/enzyme protein content; [formula]

in vitro = conditions: human, blood
Description: (§1) 1 mM stock solutions of the test compounds were prepared in DMSO, and a 1 mM stock solution of the reference compound propantheline was prepared in acetonitrile.
(§2) 4 µL of test compound (or reference compound) stock solution was added to 796 µL of pre-incubated human blood (whole blood) at a final concentration of 5 µM. The final concentration of the solvent was 0.5%. At different time points (including 5 min, 15 min, 30 min, 60 min, and 120 min), a 50 µL aliquot of the whole blood containing the sample was added to a new tube and incubated in a 37 °C water bath with shaking at 60 rpm. The treatment was performed in duplicate. At designated time points, 300 µL of room-temperature quenching solution (a solution of acetonitrile containing internal standards (100 nM alprazolam, 500 nM labetalol, and 2 µM ketoprofen)) was added to the whole blood sample containing the sample to terminate the reaction. 50 µL of whole blood containing the sample was added to a new tube containing 300 µL of room-temperature quenching solution to prepare a sample at 0 min. All samples were vortexed for 5 min. The samples in the plate were centrifuged at 3220 g for 30 min at 4 °C to precipitate the proteins. 100 µL of the supernatant was transferred to a new 96-well plate containing 100 µL of water for LC-MS/MS analysis.
(§3) The peak area ratio was determined by using an extracted ion chromatogram. The proportion of remaining compound at each time point was calculated according to the following formula: Remaning proporion t min (%) = peak area ratio t min / peak area ratio 0 min × 100% [formula] • Peak area ratio t min: peak area ratio of reference compound to test compound at t min; • Peak area ratio 0 min: peak area ratio of reference compound to test compound at time zero.
(§4) The slope value was determined by linear regression on the curve of the natural logarithm of the remaining proportion of the test compound versus the incubation time.
(§5) Determination of in vitro half-life (in vitro t1/2) from the slope value: in vitro t1/2 = 0.693/k [formula] in the formula, k is the rate constant (k = -slope value)

C57BL/6 mice [2] = conditions: mouse, in vivo
Description: (§6) Animal information: C57BL/6 mice (male, aged 4-6 weeks, about 18-20 g), purchased from Shanghai Lingchang Biotechnology Co., Ltd. The mice were bred in an SPF-level environment within independently ventilated cages.
(§7) Skin preparation: After 1-2 weeks of acclimation, the hairs in a 2 cm × 3 cm area of the back of the mice were shaved to confirm that the hairs of the mice were in the telogen phase (the skin was pink) and the skin was not damaged.
(§8) Treatment: On day 3 after shaving, the mice were grouped for treatment. […] The control group received the control solvent. 12 mice were in each group.
(§9) The mice were weighed on days 10, 13, 18, 21, 25, and 30, and the hair growth state was scored and photographed.
(§10) The scoring criteria are as follows: • 0: no growth, with pink skin in the shaved area; • 1: the skin in the shaved area was gray (an increase of less than 20%); • 2: the skin in the shaved area was black (more than 20% but less than 40%); • 3: the skin in the shaved area was black with a little hair growth (more than 40% but less than 60%); • 4: the skin in the shaved area was black with partial hair growth (more than 60% but less than 80%); • 5: basically complete hair growth (80%-100% growth) in the shaved area.

C57BL/6 mice [3] = assay: In vivo pharmacodynamic study 1: hair growth scoring in shaved telogen-phase mice, topical treatment; conditions: for Score (mean±SD): hair growth score 0-5, topical twice daily, compound 001 2 wt%, compound 008 0.5 wt%
Description: as §6, §7, §8, §9, §10

[4] = 5 µM
Description: as §1, §2, §3, §4, §5

Whole blood stability = conditions: human
Description: as §1, §2, §3, §4, §5

C57BL/6 mice [5] = assay: In vivo pharmacodynamic study 2: hair growth scoring in shaved telogen-phase mice, topical treatment; conditions: for Score (mean±SD): hair growth score 0-5, 0.5 wt% topical twice daily
Description: Vehicle: propylene glycol/ethanol (30:70, v/v)
A 1 cm × 1 cm area in the center of the back skin was selected as the treatment area.
The control group received the control solvent. 12 mice were in each group.
The mice were weighed on days 9, 12, 15, 19, and 22, and the hair growth state was scored and photographed.

[6] = at the investigated doses (0.5 wt%, BID topical)

SMILES: CCOC(=O)C(C)(O)C(=O)Nc1cnc(C#N)c(SC)c1 (single isomer, unassigned) [Compound 016B]
- AR antagonism (inhibition rate, %) (AR): 90.50^a %
- microsomal CLint at 1 µM ([1]; microsomes): 88.3 µL/min/mg
- half-life at 1 µM ([1]; microsomes): 0.262 h
- half-life at 5 µM (in vitro): 1.69 h

SMILES: CCOC(=O)C(C)(O)C(=O)Nc1cnc(C#N)c(C(F)(F)F)c1 (stereo not shown) [Compound 001, Ethyl 3-[[6-cyano-5-(trifluoromethyl)-pyridin-3-yl]amino]-2-hydroxy-2-methyl-3-oxopropanoate]
- impact on the body weight of the mice (C57BL/6 mice [2]): no significant impact
- signs of erythema, dehiscence, desquamation, and the like on the skin (C57BL/6 mice [2]): no signs
- AR antagonism (inhibition rate, %) (AR): 86.6^a %
- Score (mean±SD) (C57BL/6 mice [3]; Day 0): 0
- Score (mean±SD) (C57BL/6 mice [3]; Day 10): 0.6±0.5
- Score (mean±SD) (C57BL/6 mice [3]; Day 13): 0.9±0.9
- Score (mean±SD) (C57BL/6 mice [3]; Day 18): 1.3±1.4
- Score (mean±SD) (C57BL/6 mice [3]; Day 21): 1.9±1.8
- Score (mean±SD) (C57BL/6 mice [3]; Day 25): 2.4±2.2
- Score (mean±SD) (C57BL/6 mice [3]; Day 30): 3.0±1.8
- effect on mouse hair growth (C57BL/6 mice [3]; compound 001 at 2%, compound 008 at 0.5%, BID topically at 20 µL/cm^2): significant promoting effect
- day of the treatment from which hair growth was significantly promoted (C57BL/6 mice [3]; vs. vehicle control, 001 P < 0.01, 008 P < 0.05): ≥ 10 days
- Human whole blood half-life T1/2 [4]: 2.9982 h

- microsomal CLint at 1 µM ([1]; human liver microsomes): 91.8 µL/min/mg
- half-life at 1 µM ([1]; human liver microsomes): 0.252 h
- half-life at 5 µM (Whole blood stability): 2.2 h
- signs of erythema, dehiscence, desquamation, and the like on the skin (C57BL/6 mice [5]; [6]): no signs
SMILES: CCOC(=O)[C@@](C)(O)C(=O)Nc1cnc(C#N)c(SC)c1 [Compound 016A, ethyl (2S)-3-[(6-cyano-5-methylthio-pyridin-3-yl)amino]-2-hydroxy-2-methyl-3-oxopropanoate]
- AR antagonism (inhibition rate, %) (AR): 99.98^a %
- effect on hair growth (C57BL/6 mice [5]; 0.5 wt%, BID topically at 20 µL/cm^2): significant promoting effect
- Score (mean±SD) (C57BL/6 mice [5]; Day 0): 0
- Score (mean±SD) (C57BL/6 mice [5]; Day 9): 0.1±0.3
- Score (mean±SD) (C57BL/6 mice [5]; Day 12): 0.1±0.3
- Score (mean±SD) (C57BL/6 mice [5]; Day 15): 0.5±0.8
- Score (mean±SD) (C57BL/6 mice [5]; Day 19): 1.7±1.5
- Score (mean±SD) (C57BL/6 mice [5]; Day 22): 2.9±1.6
- impact on the body weight of the mice (C57BL/6 mice [5]; [6]): no significant impact
- day of the treatment from which hair growth was significantly promoted (C57BL/6 mice [5]; vs. vehicle control, P < 0.0001): ≥ 19 days
